# Assay results published in article PMC8956739, “A synthetic lipopeptide targeting top-priority multidrug-resistant Gram-negative pathogens” (Nature Communications, 2022).
# “And” between values parts separate entries of the source, which are not always exact repeats. Identical values can stand only once. Residues, ends and D or L forms follow the SMILES beside them.
# Assays:
# A. baumannii AB5075 [1] = assay: Transcriptomic analysis (RNA-Seq) of bacteria; type: cell-based, Acinetobacter baumannii
# Method: Mid-log phase A. baumannii AB5075 (~10^8 CFU/mL) in CaMHB was treated with colistin (2 and 8 μg/mL), F287, F319 or F365 (equimolar concentration to colistin) for 1 and 4 h. Total RNA was extracted using TRIzol Reagent (Invitrogen, USA) and RNeasy Mini Kit (Qiagen, Germany). Quality check of RNA samples was conducted with NanoDrop (Thermo Fisher Scientific, USA) and Agilent 2100 Bioanalyzer (Agilent Technologies, USA) for sequencing (150 bp paired-end) at Genewiz (Shanghai, China). Raw reads were aligned to A. baumannii AB5075 genome (GCF_000963815, https://www.ncbi.nlm.nih.gov/assembly/GCF_000963815.1/) using subread-aligner (subread 2.0.1) and summarized by featureCounts (subread 2.0.1). Principal component analysis (PCA) was conducted with mixOmics 6.14.1 in R. Differentially expressed genes were determined using limma 3.46.0 with a combination of fold change ≥ 2 and false discovery rate (FDR, by Benjamini–Hochberg algorithm) adjusted P-value ≤ 0.05 (n = 3). Enrichment analysis of gene differential expression in AB5075 was conducted using BioCyc (A. baumannii AB5075, version 25.5). UpSetR 1.4.0, ComplexHeatmap 2.6.2 and circlize 0.4.13 were used for data visualization. Raw data were deposited in Short Reads Archive (SRA) database under accession numbers SRR15235669-SRR15235725.
# [2] = tested on: MDR clinical isolates of Enterobacterales (n = 177, 152 carbapenem-resistant); assay: Extended MIC screening, MDR clinical isolates; type: cell-based
# Method: MICs were determined in cation-adjusted Mueller–Hinton broth (CaMHB) by the broth micro-dilution method against ATCC strains and clinical isolates. MICs in the presence of Survanta® were determined as described above against P. aeruginosa ATCC 27853. In the 100 μL of fresh CaMHB containing polymyxins, 10% Survanta® (v/v, 2.5 mg/mL phospholipids) was added. MICs in the presence and absence of Survanta® were compared to determine the effect of binding to lung surfactant on the antibacterial activity of polymyxins.
# A. baumannii AB5075 [3] = assay: In vitro passaging, emergence of resistance; type: cell-based, Acinetobacter baumannii; details: for OD600: 8 ug/mL
# Method: Log-phase cultures (OD600 = 0.5, ~10^8 CFU/mL) of A. baumannii AB5075 were inoculated (1:10, v/v) in 200 μL fresh CaMHB (cation-adjusted Mueller–Hinton broth) containing 2, 8 and 16 μg/mL polymyxin B, colistin, F287, and F365 in a 96-well microplate with 4 biological replicates. The cultures were incubated at 37 °C for 12 h before the next dilution (1:10, v/v) with fresh CaMHB. Successive subculturing was conducted for 7 days.
# [4] = L vs Cont, 4h, RNA-Seq A. baumannii AB5075
# [5] = L vs Cont, 4h, pathway Fatty Acid and Lipid Degradation
# [6] = L, 4h vs 1h, RNA-Seq A. baumannii AB5075
structure (smiles),measurement,setting,value
"CCCCCCCC(=O)N[C@@H](CCN)C(=O)N[C@H](C(=O)N[C@@H](CN)C(=O)N[C@H]1CCNC(=O)[C@H]([C@@H](C)O)NC(=O)[C@H](CCN)NC(=O)[C@H](CCN)NC(=O)[C@H](CC)NC(=O)[C@@H](CC(C)C)NC(=O)[C@H](CCN)NC1=O)[C@@H](C)O [Lipopeptide F287] (HELM PEPTIDE1{[CCCCCCCC(=O)[*:2]].[Dab].T.[NC[C@H](N[*:1])C(=O)[*:2]].[Dab].[Dab].[dL].[Abu].[Dab].[Dab].T}$PEPTIDE1,PEPTIDE1,5:R3-11:R2$$$V2.0)","logFC (Fold change), gene ABUW_RS00030",A. baumannii AB5075 [1]; [4],0.3636
same,"logFC (Fold change), gene ABUW_RS00035",A. baumannii AB5075 [1]; [4],0.2169
same,"logFC (Fold change), gene recF (ABUW_RS00015)",A. baumannii AB5075 [1]; [4],0.1608
same,"log2FC, gene ABUW_RS01945 (acyl-CoA thioesterase II)",A. baumannii AB5075 [1]; [5],-0.1224
same,"log2FC, gene ABUW_RS02545 (acyl-CoA thioesterase)",A. baumannii AB5075 [1]; [5],-0.4528
same,"log2FC, gene ABUW_RS05045 (acyl-CoA thioesterase)",A. baumannii AB5075 [1]; [5],0.3557
same,"log2FC, gene ABUW_RS17575 (acyl-CoA thioesterase)",A. baumannii AB5075 [1]; [5],-0.4747
same,"4h_1h logFC (Differential gene expression for all genes), Geneid ABUW_RS00005",A. baumannii AB5075 [1]; [6],-0.01752
same,"4h_1h logFC (Differential gene expression for all genes), Geneid ABUW_RS00010",A. baumannii AB5075 [1]; [6],-0.721
same,"4h_1h logFC (Differential gene expression for all genes), Geneid ABUW_RS00015",A. baumannii AB5075 [1]; [6],0.1845
same,"4h_1h logFC (Differential gene expression for all genes), Geneid ABUW_RS00020",A. baumannii AB5075 [1]; [6],-0.0476
same,Number of isolates,[2]; isolates with MIC 0.05 µg/mL,0
same,Number of isolates,[2]; isolates with MIC 0.125 µg/mL,0
same,Number of isolates,[2]; isolates with MIC 0.25 µg/mL,17
same,Number of isolates,[2]; isolates with MIC 0.5 µg/mL,131
same,Number of isolates,[2]; isolates with MIC 1 µg/mL,5
same,Number of isolates,[2]; isolates with MIC 2 µg/mL,2
same,Number of isolates,[2]; isolates with MIC 4 µg/mL,1
same,Number of isolates,[2]; isolates with MIC 8 µg/mL,2
same,Number of isolates,[2]; isolates with MIC 16 µg/mL,5
same,Number of isolates,[2]; isolates with MIC 32 µg/mL,7
same,Number of isolates,[2]; isolates with MIC 64 µg/mL,3
same,Number of isolates,[2]; isolates with MIC >64 µg/mL,4
same,OD600,"A. baumannii AB5075 [3]; time 0 h, passage 0, replicates rep1-rep4, raw OD600 (blank OD600 0.125333)",0.15 and 0.135 and 0.14
same,OD600,"A. baumannii AB5075 [3]; time 12 h, passage 1, replicates rep1-rep4, raw OD600 (blank OD600 0.114667)",0.134 and 0.126 and 0.13 and 0.129
same,OD600,"A. baumannii AB5075 [3]; time 24 h, passage 2, replicates rep1-rep4, raw OD600 (blank OD600 0.0956667)",0.091 and 0.089 and 0.086
same,OD600,"A. baumannii AB5075 [3]; time 36 h, passage 3, replicates rep1-rep4, raw OD600 (blank OD600 0.088)",0.088 and 0.089 and 0.095
same,OD600,"A. baumannii AB5075 [3]; time 48 h, passage 4, replicates rep1-rep4, raw OD600 (blank OD600 0.104667)",0.095 and 0.092 and 0.093 and 0.111
same,OD600,"A. baumannii AB5075 [3]; time 60 h, passage 5, replicates rep1-rep4, raw OD600 (blank OD600 0.122333)",0.105 and 0.107 and 0.117
same,OD600,"A. baumannii AB5075 [3]; time 72 h, passage 6, replicates rep1-rep4, raw OD600 (blank OD600 0.095)",0.097 and 0.09 and 0.087
same,OD600,"A. baumannii AB5075 [3]; time 84 h, passage 7, replicates rep1-rep4, raw OD600 (blank OD600 0.091)",0.094 and 0.097 and 0.099 and 0.113
same,OD600,"A. baumannii AB5075 [3]; time 96 h, passage 8, replicates rep1-rep4, raw OD600 (blank OD600 0.0953333)",0.111 and 0.113 and 0.11 and 0.117
same,OD600,"A. baumannii AB5075 [3]; time 108 h, passage 9, replicates rep1-rep4, raw OD600 (blank OD600 0.100667)",0.115 and 0.107 and 0.116
same,OD600,"A. baumannii AB5075 [3]; time 120 h, passage 10, replicates rep1-rep4, raw OD600 (blank OD600 0.0983333)",0.108 and 0.113 and 0.118
same,OD600,"A. baumannii AB5075 [3]; time 132 h, passage 11, replicates rep1-rep4, raw OD600 (blank OD600 0.0843333)",0.121 and 0.108 and 0.118 and 0.122
same,OD600,"A. baumannii AB5075 [3]; time 144 h, passage 12, replicates rep1-rep4, raw OD600 (blank OD600 0.091)",0.116 and 0.114 and 0.12
same,OD600,"A. baumannii AB5075 [3]; time 156 h, passage 13, replicates rep1-rep4, raw OD600 (blank OD600 0.129)",0.118 and 0.12 and 0.113 and 0.116
same,OD600,"A. baumannii AB5075 [3]; time 168 h, passage 14, replicates rep1-rep4, raw OD600 (blank OD600 0.101)",0.096 and 0.095 and 0.092 and 0.117
same,time to emergence of resistance,"A. baumannii AB5075 [3]; 4× MIC, 7-day passaging",≤ 3 days
same,growth over 7 days,A. baumannii AB5075 [3]; 32× MIC,No growth
